The values that follow come from US7816331B2, “Substituted indazole-O-glucosides” (Janssen Pharmaceutica NV, priority 2003, dated 2010).

The target of one assay is T1, human SGLT2 (Homo sapiens, UniProt P31639).
T1 construct: expressed in transfected cells
T1 sequence (P31639 1-672): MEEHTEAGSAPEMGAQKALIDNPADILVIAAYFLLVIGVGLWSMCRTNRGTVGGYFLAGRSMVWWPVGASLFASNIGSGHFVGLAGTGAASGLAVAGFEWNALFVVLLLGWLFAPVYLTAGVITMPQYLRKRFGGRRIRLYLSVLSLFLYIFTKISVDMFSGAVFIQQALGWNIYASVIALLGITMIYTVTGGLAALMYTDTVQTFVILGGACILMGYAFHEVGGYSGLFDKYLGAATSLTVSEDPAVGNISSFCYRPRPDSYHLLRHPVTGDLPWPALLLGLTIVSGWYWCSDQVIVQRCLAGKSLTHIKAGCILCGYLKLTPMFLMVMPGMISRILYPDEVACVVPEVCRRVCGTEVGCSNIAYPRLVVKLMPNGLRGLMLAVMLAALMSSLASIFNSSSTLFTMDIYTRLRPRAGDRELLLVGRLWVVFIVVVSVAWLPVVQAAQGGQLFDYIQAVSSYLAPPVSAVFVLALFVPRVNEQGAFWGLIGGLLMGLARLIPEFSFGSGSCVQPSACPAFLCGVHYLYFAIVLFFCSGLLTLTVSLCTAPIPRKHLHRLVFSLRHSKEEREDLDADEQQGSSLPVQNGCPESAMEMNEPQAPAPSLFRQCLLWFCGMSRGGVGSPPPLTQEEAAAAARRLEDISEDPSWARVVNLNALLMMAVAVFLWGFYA
The assay can be described thus: Cell-based assay for sodium-dependent glucose transport (14C-AMG uptake), CHOK-SGLT2. Conditions: for IC50: CHO-K1 cells stably expressing human SGLT2, Na-dependent 14C-AMG uptake, read-out: CHOK-SGLT2 IC50 (uM) ± SEM; for inhibition at 10 µM: CHO-K1, read-out: CHOK-SGLT2 % Inh. @ 10 μM. The procedure: (§1) Cloning of the human SGLT1 and human SGLT2 cDNAs and construction of the mammalian expression vector: The human SGLT1 cDNA (Genbank M24847) was cloned from human small intestine. Human SGLT2 cDNA (Genbank M95549) was cloned from human kidney. Both full cDNAs were subcloned into pcDNA and sequenced to verify the integrity of the construct. Generation of CHO-K1 cells stably expressing human SGLT1 or human SGLT2: Transfection of CHO-K1 cells was performed using DMRIE-C reagent (Life Technologies, Gaithersburg, Md.). Transfectants were then selected in the presence of the antibiotic G418 (Gibco-BRL, Grand Island, N.Y.) at 400 μg/ml. Individual clones were then characterized using the functional assay described below. Cell-based assay for sodium-dependent glucose transport: Cell lines stably expressing human SGLT1 or SGLT2 were then used for functional analysis of Na^+-dependent glucose uptake. Briefly, cells were plated at a density of 65,000 cells per well in a 96-well plate and allowed to grow for 48 hours. Cells were subsequently washed one time with Assay Buffer (50 mM HEPES pH 7.4, 20 mM Tris, 5 mM KCl, 1 mM MgCl2, 1 mM CaCl2 and 137 mM NaCl) and treated with compound in the absence or presence of NaCl for 15 minutes. Cells were then labeled with ^14C-α-methylglucopyranoside (AMG, Sigma, St. Louis, Mo.), a non-metabolizable glucose analog specific for sodium-dependent glucose transporters as previously described (Peng, H. and Lever J. E. Post-transcriptional regulation of Na^+/glucose cotransporter (SGLT1) gene expression in LLC-PK1 cells. J Biol Chem 1995; 270:20536-20542.). After 2 hours the labelled cells were washed three times with ice-cold PBS. After aspiration, cells were solubilized using Microscint 20 (Packard, Meriden, Conn.) and Na-dependent ^14C-AMG uptake was quantified by measuring radioactivity. Plates were counted in a TopCount (Packard, Meriden, Conn.). Results are reported as the % inhibition or IC50 value from a representative experiment.

The target of a further assay is T2, human SGLT1 (Homo sapiens, UniProt P13866).
T2 construct: expressed in transfected cells
T2 sequence (P13866 1-664): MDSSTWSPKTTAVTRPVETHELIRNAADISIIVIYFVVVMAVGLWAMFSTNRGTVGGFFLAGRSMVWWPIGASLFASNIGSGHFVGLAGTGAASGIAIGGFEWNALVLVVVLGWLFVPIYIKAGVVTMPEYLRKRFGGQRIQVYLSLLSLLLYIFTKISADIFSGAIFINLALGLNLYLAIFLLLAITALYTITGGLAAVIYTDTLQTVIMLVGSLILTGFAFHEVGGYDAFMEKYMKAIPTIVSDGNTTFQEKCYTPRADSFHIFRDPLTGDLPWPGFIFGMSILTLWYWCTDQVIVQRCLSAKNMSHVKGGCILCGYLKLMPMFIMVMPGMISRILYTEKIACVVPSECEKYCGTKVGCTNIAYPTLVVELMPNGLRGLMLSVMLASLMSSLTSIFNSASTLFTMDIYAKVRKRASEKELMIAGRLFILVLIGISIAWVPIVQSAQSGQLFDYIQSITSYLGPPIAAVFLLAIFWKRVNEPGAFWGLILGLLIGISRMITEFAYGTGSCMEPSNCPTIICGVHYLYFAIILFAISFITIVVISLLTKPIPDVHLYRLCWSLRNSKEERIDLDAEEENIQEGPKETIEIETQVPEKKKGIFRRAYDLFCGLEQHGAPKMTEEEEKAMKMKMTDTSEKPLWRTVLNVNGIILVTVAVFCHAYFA
The assay can be described thus: Cell-based assay for sodium-dependent glucose transport (14C-AMG uptake), CHOK-SGLT1. The note with it: 10 uM compound, CHO-K1 cells stably expressing human SGLT1, Na-dependent 14C-AMG uptake; for inhibition at 10 µM: read-out: CHOK-SGLT1 % Inh (10 uM). The procedure:
as §1, with “experiment. Variability for the functional assay was typically within 20%.” for “experiment.”

The structures appear in SMILES notation.

As a reminder, the IC50 is the concentration that inhibits the measured activity by half. On to `Cc1cc(O[C@@H]2O[C@H](CO)[C@@H](O)[C@H](O)[C@H]2O)c2c(CCc3ccc4c(c3)CCO4)n[nH]c2c1` [Example 1, 2-{3-[2-(2,3-Dihydro-benzofuran-5-yl)-ethyl]-6-methyl-1H-indazol-4-yloxy}β3-D-glucopyranoside], for which the half-inhibitory concentration (IC50) on human SGLT2 worked out at 0.458 ± 0.061 µM. Further, the inhibition at 10 µM at human SGLT1 was determined as 48%.

As to `Cc1cc(OC2OC(CO)C(O)C(O)C2O)c2c(CCc3ccc(Cl)cc3)n[nH]c2c1` [Example 11, 2-{3-[2-(4-Chloro-phenyl)-ethyl]-6-methyl-1H-indazol-4-yloxy}-β-D-glucopyranoside], the inhibition at 10 µM came out at 66% on human SGLT2 and 12% on human SGLT1.

As for `COc1ccc2cc(CCc3n[nH]c4cc(C)cc(OC5OC(CO)C(O)C(O)C5O)c34)ccc2c1` [Example 6, 2-{3-[2-(6-Methoxy-naphthalen-2-yl)-ethyl]-6-methyl-1H-indazol-4-yloxy}-β-D-glucopyranoside], the IC50 on human SGLT2 was 1 µM. The inhibition at 10 µM on human SGLT1 was 7%.

As for `OC[C@H]1O[C@@H](Oc2cccc3[nH]nc(CCc4ccc5occc5c4)c23)[C@H](O)[C@@H](O)[C@@H]1O` [Example 18], the IC50 on human SGLT2 was 1.2 ± 0.071 µM. For the same compound, on human SGLT1, the inhibition at 10 µM was found to be 43%.

For the compound `CCOc1ccc(CCc2n[nH]c3cc(C)cc(OC4OC(CO)C(O)C(O)C4O)c23)cc1` [Example 10, 2-{3-[2-(4-Ethoxy-phenyl)-ethyl]-6-methyl-1H-indazol-4-yloxy}β-D-glucopyranoside], on human SGLT2, the 50% inhibitory concentration (IC50) stood at 2 ± 0.071 µM. Besides, on human SGLT1, the inhibition at 10 µM came out at 5%.

Consider `COc1ccc(CCc2n[nH]c3cc(C)cc(OC4OC(CO)C(O)C(O)C4O)c23)cc1` [Example 9, 2-{3-[2-(4-Methoxy-phenyl)-ethyl]-6-methyl-1H-indazol-4-yloxy}β-D-glucopyranoside], for which the IC50 at human SGLT2 was determined as 3.05 ± 0.319 µM. In addition, the inhibition at 10 µM at human SGLT1 was 11%.

As to `Cc1cc(OC2OC(CO)C(O)C(O)C2O)c2c(CCc3ccc(C(F)(F)F)cc3)n[nH]c2c1` [Example 12, 2-{3-[2-(4-Trifluoromethyl-phenyl)-ethyl]-6-methyl-1H-indazol-4-yloxy}β-D-glucopyranoside], on human SGLT2, the inhibition at 10 µM worked out at 36%. Moreover, the “CHOK-SGLT1 % Inh (10 uM)” value at human SGLT1 was “inactive”.

Regarding `CC(=O)OC[C@H]1O[C@@H](Oc2cc(C)cc3[nH]nc(CCc4ccc5c(c4)CCO5)c23)[C@H](O)[C@@H](O)[C@@H]1O` [Example 2, 2-{3-[2-(2,3-Dihydro-benzofuran-5-yl)-ethyl]-6-methyl-1H-indazol-4-yloxy}-6-O— acetyl-β-D-glucopyranoside], the inhibition at 10 µM on human SGLT2 amounted to 69%; at human SGLT1, 14%.

Turning to `COc1ccc(Cc2n[nH]c3cc(C)cc(O[C@@H]4O[C@H](CO)[C@@H](O)[C@H](O)[C@H]4O)c23)cc1` [Example 21, 2-[3-(4-Methoxy-benzyl)-6-methyl-1H-indazol-4-yloxy]-β-D-glucopyranoside], the IC50 at human SGLT2 worked out at 0.959 ± 0.118 µM. For the same compound, at human SGLT1, the “CHOK-SGLT1 % Inh (10 uM)” value is “inactive”.

In the case of `Cc1cc(O[C@@H]2O[C@H](CO)[C@@H](O)[C@H](O)[C@H]2O)c2c(CCc3ccc4c(c3)OCCO4)n[nH]c2c1` [Example 3, 2-{3-[2-(2,3-Dihydro-benzo[1,4]dioxin-6-yl)-ethyl]-6-methyl-1H-indazol-4-yloxy}β-D-glucopyranoside], on human SGLT2, the IC50 was determined as 1.59 ± 0.025 µM. In addition, at human SGLT1, the “CHOK-SGLT1 % Inh (10 uM)” value is “inactive”.

In the case of `CC(=O)OC[C@H]1O[C@@H](Oc2cc(C)cc3[nH]nc(CCc4ccc5occc5c4)c23)[C@H](O)[C@@H](O)[C@@H]1O` [Example 14, 2-[3-(2-Benzofuran-5-yl-ethyl)-6-methyl-1H-indazol-4-yloxy]-6-O-acetyl-β-D-glucopyranoside], the IC50 at human SGLT2 was 1.5 ± 0.071 µM. The inhibition at 10 µM at human SGLT1 is 42%.

Regarding `Cc1cc(OC2OC(CO)C(O)C(O)C2O)c2c(CCc3ccc4ccccc4c3)n[nH]c2c1` [Example 4, 2-[6-Methyl-3-(2-naphthalen-2-yl-ethyl)-1H-indazol-4-yloxy]-β-D-glucopyranoside], at human SGLT2, the IC50 amounted to 1.95 ± 0.816 µM. Besides, on human SGLT1, the inhibition at 10 µM was 18%.

For the compound `Cc1cc(OC2OC(CO)C(O)C(O)C2O)c2c(CCc3ccc(NS(C)(=O)=O)cc3)n[nH]c2c1` [Example 16, 2-{3-[2-(4-Methanesulfonylamino-phenyl)-ethyl]-6-methyl-1H-indazol-4-yloxy}β-D-glucopyranoside], the inhibition at 10 µM on human SGLT2 is 42%. Besides, the “CHOK-SGLT1 % Inh (10 uM)” value on human SGLT1 was “inactive”.

For the compound `COC1CCc2cc(CCc3n[nH]c4cc(C)cc(OC5OC(CO)C(O)C(O)C5O)c34)ccc2C1` [Example 7, 2-{3-[2-(6-Methoxy-5,6,7,8-tetrahydro-naphthalen-2-yl)-ethyl]-6-methyl-1H-indazol-4-yloxy}β-D-glucopyranoside], the inhibition at 10 µM at human SGLT2 was 43%. Besides, the “CHOK-SGLT1 % Inh (10 uM)” value on human SGLT1 is “inactive”.

`Cc1cc(O[C@@H]2OC(CO)[C@@H](O)[C@H](O)[C@H]2O)c2c(CCc3ccc4occc4c3)n[nH]c2c1` (stereo partly drawn) [Example 13, 2-[3-(2-Benzofuran-5-yl-ethyl)-6-methyl-1H-indazol-4-yloxy]-β-D-glucopyranoside]: the inhibition at 10 µM at human SGLT1 is 52%.
